Source: paper PMC11401973, “A novel small molecule ZYZ384 targeting SMYD3 for hepatocellular carcinoma via reducing H3K4 trimethylation of the Rac1 promoter” (MedComm, 2024)

Key:
HepG2 tumors = test: HepG2 tumor-bearing nude mouse model (CDX); type: in vivo, nude mice
Method: The in vivo antitumor effect of ZYZ384 was assessed using a HepG2 tumor‐bearing nude mouse model (cell‐derived xenograft, CDX; Figure 4D).
The tumor‐bearing nude mice model was established by direct injection of hepG2 cells into the left armpit of nude mice. Animals were subsequently divided into five groups (n = 7). All compounds were applied via intragastric administration, and sorafenib was used as the positive control. Other groups, except the control group, were treated with different concentrations of ZYZ384. Body weight and tumor volume were monitored and recorded throughout the treatment period.

Water solubility = type: physicochemical
From the text: We were granted a Chinese patent (CN114246851A) to protect the structure and activity of ZYZ384, the effectiveness of ZYZ384 at high concentrations presents a challenge for future clinical use. […] Currently, we are trying to transform it into hydrochloride or culture cocrystallization to improve its solubility, bioavailability, and druggability. Drug resistance and combination therapy of ZYZ384 on other models will be gradually carried out in the follow‐up work. Although we developed a small molecule targeting SMYD3, we still need to figure out whether it is a selective inhibitor, and related research is to be continued.

HepG2 cells = test: MTT cell viability; type: cell-based; conditions: Homo sapiens, 24 h
Method: (§1) The cytotoxicity of ZYZ384 was determined across several different cancer cell lines. 3‐(4,5‐Dimethylthiazol‐2‐yl)‐2,5‐diphenyltetrazolium bromide (MTT) assay was used to assess cell viability. […] The cancer cell lines tested include human liver carcinoma cell HepG2, adenocarcinoma human alveolar basal epithelial cell A549, human colon carcinoma cell HTC116, human breast adenocarcinoma cell MDA‐MB‐231, and human pancreatic adenocarcinoma cell Miapaca2. […] In addition, ZYZ384 had low toxicity when tested in normal liver cells (LO2; Figure 3H).
(§2) Human HepG2, A549, HCT116, MDA‐MB‐231, and Miapaca2 cells were purchased from American Type Culture Collection (ATCC) and cultured in DMEM medium supplemented with 1% penicillin/streptomycin and 10% FBS at 37°C under 5% CO2 atmosphere and 95% air. Trypsin EDTA was used for cell passage.
(§3) Cell viability was assessed in several cancer cell lines and determined using the MTT assay in a 96‐well plate format. In brief, cells from […] medium (1 × 10^4/well) were inoculated in 96‐well plates and treated with ZYZ384. After 24 h of treatment, cell viability was determined by adding 1 mg/mL MTT‐containing medium for 4 h, followed by […] Dimethyl sulfoxide (DMSO) to dissolve formazan. The absorbance at 570 nm was recorded using a microplate ultraviolet/visible (UV/VIS) spectrophotometer (Tecan).

Miapaca2 cells = test: MTT cell viability; type: cell-based; conditions: Homo sapiens, MIA PaCa-2, 24 h
Method: as §1, §2, §3

MDA-MB-231 cells = test: MTT cell viability; type: cell-based; conditions: Homo sapiens; MDA-MB-231, MTT, 24 h
Method: as §1, §2, §3

HCT116 cells = test: MTT cell viability; type: cell-based; conditions: Homo sapiens, HCT-116, 24 h
Method: as §1, §2, §3

A549 cells = test: MTT cell viability; type: cell-based; conditions: Homo sapiens, 24 h
Method: as §1, §2, §3

Huh7 cells = test: MTT cell viability; type: cell-based; conditions: Homo sapiens, Huh-7, 24 h
SMYD3 [1] = test: SMYD3 expression in tumor tissue (Western blot); type: in vivo, nude mice; conditions: ZYZ384 treatment groups versus control group
Method: (§4) In order to explore the antitumor mechanism of ZYZ384, the inhibitory effect of ZYZ384 on SMYD3 was determined in tumor tissues. […] In parallel, the expression of H3K4me3 was also noted to decrease in a similar pattern to that of SMYD3 (Figure 5B). The tumor tissues from control and high‐dosage treatment group animals were isolated. Since SMYD3 can tri‐methylated H3K4, ChIP‐seq analysis was used. This method allowed for annotating H3K4me3 occupancy on genes (Figure 5C). Global H3K4me3 occupancy decreased near annotation genes' transcription start site (TSS; Figure 5D). H3K4me3 is often enriched at activated promoters near TSSs. When combined with Kyoto Encyclopedia of Genes and Genomes (KEGG) pathway enrichment analysis (Figure 5E) and Gene Ontology (GO) functional enrichment analysis (Figure 5F), attention focus on the AKT pathway, cell proliferation, and migration functions. Visualized reads and signal strength of H3K4me3 for the Rac1 gene at the promoter region decreased following treatment with ZYZ384 (Figure 5G). […]
(§5) Isolated protein (30 µg) was obtained from tissues, separated on a sodium dodecyl sulfate‐polyacrylamide gel electrophoresis (SDS‐PAGE) gel, and transferred to a polyvinylidene fluoride membrane. […] The immunoreactive protein is visualized by enhanced chemiluminescence, and the signal intensity was detected and quantified using ImageJ.

SMYD3-GST tag protein = molecular target: T1, SMYD3-GST tag protein (Homo sapiens, UniProt Q9H7B4); test: Biolayer interferometry (BLI) binding assay; conditions: steady-state analysis, read-out: equilibrium dissociation constant (K D)
T1 construct: purchased BPS Bioscience
T1 sequence (Q9H7B4 1-428): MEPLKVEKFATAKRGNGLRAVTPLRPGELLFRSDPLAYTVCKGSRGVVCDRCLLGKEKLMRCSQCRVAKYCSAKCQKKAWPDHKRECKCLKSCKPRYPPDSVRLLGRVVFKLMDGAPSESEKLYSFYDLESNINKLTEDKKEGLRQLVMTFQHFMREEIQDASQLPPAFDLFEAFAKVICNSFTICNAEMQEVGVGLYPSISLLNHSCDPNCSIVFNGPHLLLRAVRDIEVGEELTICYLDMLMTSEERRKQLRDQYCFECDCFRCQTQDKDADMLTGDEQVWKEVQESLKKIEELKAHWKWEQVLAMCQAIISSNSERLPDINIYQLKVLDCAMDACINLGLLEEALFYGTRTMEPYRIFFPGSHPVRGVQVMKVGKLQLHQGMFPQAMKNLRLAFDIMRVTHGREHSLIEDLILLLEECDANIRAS
Method: Next, to test the binding affinity of novel small molecules to SMYD3, BLI analyses were performed to determine the binding affinity of the two series of novel small molecules targeting SMYD3. SMYD3‐glutathione S‐transferase (GST)‐tagged protein was immobilized onto GST biosensors and used to determine the binding affinity of all respective small molecules and labeled probes. The binding and dissociation curves were generated in real time by applying the SMYD3‐GST label proteins onto the biosensor surfaces, followed by monitoring small molecules interaction across several concentrations. […] SMI1 has been renamed ZYZ384 and further tested for anticancer activities using both in vitro and in vivo models.
The SMYD3‐GST tag protein (BPS Bioscience) was immobilized onto a GST biosensor (Fortebio). ZYZ384 was tested across the concentrations range of 6.25–200 µM. After baseline setup using Phosphate buffer saline (PBS), the biosensor tips were immersed in wells containing ZYZ384 continuous diluent for 180 s to combine, followed by a 180‐s dissociation step. They calculated K D value with a 1:1 model in data analysis software 9.0 (Fortebio).

SMYD3 [2] = test: SMYD3 overexpression by transfection in LO2 cells and ZYZ384 treatment; type: cell-based, human; conditions: LO2 transfected with SMYD3 OE plasmid, 24 h treatment
Method: as §1
SMYD3 overexpression (SMYD3 OE) plasmid (Sino Biological) was mixed with lipofectamine 2000 for plasmid transfection. After transfection for 6 h, cells were exposed to the indicated ZYZ384 treatments for another 24 h.

SMYD3 [3] = molecular target: T2, SMYD3 (Homo sapiens, UniProt Q9H7B4); test: SMYD3 homogeneous assay kit (AlphaELISA); type: biochemical; conditions: different concentrations, 3 h incubation
T2 construct: purchased BPS Bioscience
T2 sequence (Q9H7B4 1-428): T1 sequence (Q9H7B4 1-428)
Method: The homogeneous assay kit was used to evaluate ZYZ384 inhibition activity on SMYD3. As we know, SMYD3 can catalyze the di‐ and tri‐methylation status of lysine4 of histone H3. This protein is also reported to drive the methylation of a lysine residue present in the protein […] (MAP3K2). Therefore, a series of different concentrations of ZYZ384 were incubated with SMYD3, and the activity was determined using the kit.
The commercial SMYD3 homogenous assay kit is designed to detect SMYD3 activity for screening and analytical applications. The SMYD3 homogenous assay kit is available in a convenient AlphaELISA format with GST‐labeled SMYD3 substrate, primary antibody, methylation detection buffer, and purification of SMYD3 for 384 enzyme reactions. The key to the SMYD3 homogenous assay is a particular antibody that recognizes methylated substrates. Using the kit, methyltransferase can be detected in three simple steps on a microtitration plate. First, samples containing the SMYD3 enzyme and ZYZ384 in different dosages were incubated in substrates for 3 h. Next, the receptor bead and primary antibody are added, the donor bead is added, and the Alpha counts are recorded.

LO2 cells = test: MTT cell viability, normal liver cells; type: cell-based, human
Method: as §1, §3

C57BL/6 mice = test: Short-term toxicity study of C57BL/6 mice; type: in vivo; conditions: oral
Method: The toxicity of ZYZ384 (Figure 4A) was determined using C57BL/6 mice in pilot studies to assess the safety and the maximum‐tolerable dose (MTD) determined (as shown in Figure 4B). No toxicity was reported in C57BL/6 mice orally administrated with 2 g/kg of ZYZ384 one time, and a survival rate of 100% was reached after 2 weeks of treatment. No abnormalities in food and water consumption are reported during this time, nor any unusual spontaneous activities; a reported […] for ZYZ384 >2 g/kg is noted for the current work.
C57BL/6 mice were randomly divided into two groups (n = 10) to determine the short‐term toxicity of ZYZ384. Mice were given the maximum dose of 2 g/kg orally administered ZYZ384 once, while the control group was treated with the same volume of sterilized water. The health conditions of all mice were monitored for 2 weeks.

H3K4me3 = H3K4me3 expression in tumor tissue (Western blot); type: in vivo, nude mice; conditions: ZYZ384 treatment groups versus control group
Method: as §4, §5

With `COc1ccc(/N=C2/c3ccccc3/C(=N/c3ccc(OC)cc3)C2(C)C)cc1` [ZYZ384, (1Z,3Z)-N1,N3-bis(4-methoxyphenyl)-2,2-dimethyl-1H-indene-1,3(2H)-diimine] the “body weight changes during treatment” value (HepG2 tumors; HepG2 tumor-bearing nude mice) was “no noticeable body weight changes”, the “growth suppression in HepG2 tumors” value (HepG2 tumors; nude mice, 100 mg/kg intragastric, versus sorafenib 100 mg/kg) was “better than that of sorafenib” and the water solubility (Water solubility) was “poor water solubility”. It also gave an IC50 (HepG2 cells) of 5.23 µM, an IC50 (Miapaca2 cells) of 13.8 µM and an IC50 (MDA-MB-231 cells) of 7.28 µM. The IC50 (HCT116 cells) was 15.2 µM, the IC50 (A549 cells) was 20.7 µM and the IC50 (Huh7 cells) was 5.45 µM. The “SMYD3 expression in tumor tissues” value (SMYD3 [1]) was “significantly diminished”, the Kd (SMYD3-GST tag protein) was 78 µM and the SMYD3 overexpression (SMYD3 [2]) was “suppressed”. For the same compound, the “SMYD3 activity (alpha counts)” value (SMYD3 [3]) was “inhibits SMYD3 in a concentration‐dependent manner”, the IC50 (LO2 cells; Homo sapiens, L02, LO2 normal liver cells, MTT, 24 h) was 26.7 µM and the “toxicity in normal liver cells” value (LO2 cells; LO2) was “low toxicity”. For the same compound, the LD5 (C57BL/6 mice) was over 2000 mg/kg, the toxicity (C57BL/6 mice; 2 g/kg one time, 2 weeks observation) was “No toxicity” and the survival rate (C57BL/6 mice; 2 g/kg, after 2 weeks) was 100%. The “expression of H3K4me3 in tumor tissues” value (H3K4me3) was “decrease”.
